From US20140378469A1, “LKB1/STK11 DELETION IN MELANOMA AND RELATED METHODS” (The University of North Carolina at Chapel Hill, priority 2012, published 2014)

System: TKp53^L/Lp16^L/L melanoma cells
Experiment: in vitro scratch (wound healing) assay with dasatinib
Assay type: cell-based, murine
Conditions: 30 nM dasatinib, 12 hours after wounding
Procedure: FIG. 4C is a bar graph of closure index for TKp53^L/Lp16^L/L melanoma cells with LKB1 knockdown treated with vehicle (shLkb1+DMSO) or 30 nM dasatinib (shLkb1+Dasatinib) and for TKp53^L/Lp16^L/L melanoma cells without Lkb1 knockdown treated with vehicle (NS+DMSO) or 30 nM dasatinib (NS+Dasatinib). Closure index was measured 12 hours after wounding. The asterisks indicate a significant difference (P<0.05).
The in vitro scratch (wound healing) assay was performed as described previously. See Carretero et al., 2010. Briefly, a 1 mm wide scratch was made on a confluent monolayer, and cells were then allowed to grow under standard conditions for 12 hours. The migrated distance was quantified using Image J™ software. “Close Index” was determined as 1-f, where f is calculated as the remaining gap area divided by the starting scratched area. Cell invasion was measured using matrigel invasion assay using invasion chambers obtained from BD Biosciences (San Jose, Calif., United States of America), with assays performed according to the manufacturer's instructions. Cells of the indicated genotypes (2.5×10^4) were added to the upper chamber in 500 uL of serum-free medium, and the lower chamber was filled with 750 uL of medium containing 10% fetal bovine serum (FBS) as an attractant. After 24 hours of incubation, cells on the underside of the filter were fixed, stained and counted. […]

Cc1nc(Nc2ncc(C(=O)Nc3c(C)cccc3Cl)s2)cc(N2CCN(CCO)CC2)n1 [dasatinib]
decrease in cell migration (closure index) (Lkb-intact melanoma cells (NS)): 14% | decrease in cell migration (closure index) (melanoma cells with Lkb1 knockdown (shLkb1)): 27%
